Laboratory results as given in patent publication US20260083126A1, “ANTIMICROBIAL COMPOSITIONS” (AHV International B.V., priority 2022, published 2026).
Entries after “also recorded” stand apart in the source; their conditions may differ.

What was measured:
[1] = test system: Staphylococcus epidermis ATCC 35984 biofilm; assay: MBIC assay (crystal violet); format: cell-based, Staphylococcus epidermidis; conditions: 48 h at 37° C., absorbance 540 nm
Procedure: The exact weighed amount was noted and the volume of solvent to reach a 80 mM dilution calculated. Half of the volume was added first, by adding Tween 80 and let stand for 5 minutes. In a second step, the other half of the volume DMSO was added and resuspended to help the dilution process. The closed tube was inverted 5-10 times and then vortexed very thoroughly for at least 30 seconds. If after this procedure crystals were still visible, the tube was placed in a shaker at 37° C. at 150 rpm for at least 30 minutes (it is indicated if the dissolution period was longer than 2 h). […] In case of Bis(4-Chlorophenyl) thiosulfonate, a lower concentrated stock solution of 2 mM needed to be prepared. For that, the required amount of compound was weighed in and 2% v/v Tween80 and 2% v/v DMSO of the end volume of the stock solution was added to the substance. This mix was heated in a water bath set to 40° C. and occasionally shaken. When the whole amount of the substance reached dissolution, the volume was filled up with growth medium until the end volume. This 2 mM stock solution of Bis(4-Chlorophenyl) thiosulfonate was used in the MIC plate and diluted two-fold, resulting in a testing range of Bis(4-Chlorophenyl) thiosulfonate from 1 mM to 0.002 mM.
Frozen aliquots of Staphylococcus epidermis ATCC 35984 and Pseudomonas aeruginosa ATCC 27853 were used to inoculate a tryptic soy agar (TSA) plate and were incubated overnight at 37° C. After incubation 3-5 well-isolated colonies with the same morphology were selected from the TSA plate and resuspended in 2 ml 0.9% saline solution with 3-6 glass beads and vortexed. The optical density of the bacterial suspension was measured at 600 nm (OD600) with a spectrophotometer (Evolution™ 201/220 UV-Visible Spectrophotometer, Thermo Fisher Scientific) and diluted to an OD600 of 0.2. The MBIC assay was performed in a 96-microtiter plate. […] The solution was resuspended and transferred to a flat-bottom 96-well plate and the absorbance measured at 540 nm with the spectrophotometer. […]

[2] = test system: Staphylococcus aureus LUH14616 mature biofilms; assay: Biofilm eradication assay, 7-day mature biofilms; format: cell-based; conditions: 7-day mature biofilm
Procedure: Biofilm eradication assay. The assay to reduce bacterial counts in mature biofilms was assessed as described earlier (Scheper H J, Wubbolts J M, Verhagen J A M, de Visser A W, van der Wal R J P, Visser L G, de Boer M J J G, and Nibbering P H. SAAP-148 eradicates MRSA persisters within mature biofilm models simulating prosthetic joint infection. Front. Microbiol. 12:625952. Doi: 10.3389/fmicb.2021.625952. eCollection 2021) with a single modification, i.e., the biofilms were exposed daily to AM-8 for up to 4 consecutive days. Briefly, approximately 1×10^7 CFU logarithmic phase bacteria in BHI were cultured in a 96-well flat-bottom polystyrene microplate sealed with breathable seal for 7 days. Next, mature biofilms were washed twice with PBS, then exposed for 24 hrs to AM-8 or as control the diluent of this compound. Hereafter the biofilms were washed and either re-exposed to AM-8/its diluent for another day or—in case of termination of the daily exposures-sonicated for microbiological quantification of the number of viable bacteria. Results are expressed as the number of surviving bacteria at the various days of exposure. Experiment was performed in triplicate.

[3] = test system: Staphylococcus aureus LUH 14616; assay: MBC assay (Minimal Bactericide Concentration); format: cell-based; conditions: for MBC Staphylococcus aureus: LUH 14616, n = 3, no colonies on agar plate after 20 h; for effect at concentrations of growth inhibition (MIC90), S. aureus: higher MBC values compared to MIC90 values
Procedure: (§1) Hereafter, the stock solutions of the compounds were used in three repetitions in a minimal inhibitory concentration (MIC) assay at a 2-fold dilution range with various bacteria from the gram-positive and gram-negative group and a yeast, Candida albicans. The concentrations that show only less than 10% growth after 24 h were considered the MIC90-values, whereas the concentrations that show 50% growth after 24 h when compared to the bacterial growth control were considered the MIC50-values. Escherichia coli and Staphylococcus aureus were used as representatives for a gram-negative bacteria and gram-positive bacteria, respectively. Furthermore, the yeast C. albicans was also tested.
(§2) The Minimal Bactericide Concentration (MBC) of two compounds were determined, namely diisopropyl thiosulfonate and di-n-propyl thiosulfonate. […] This assay was performed per strain of E. coli, S. aureus, and C. albicans three independent times. Therefore, the standard deviation could also be calculated (Table 10).

[4] = test system: Escherichia coli ATCC 25922; assay: MBC assay (Minimal Bactericide Concentration); format: cell-based; conditions: for MBC Escherichia coli: ATCC 25922, n = 3, no colonies on agar plate after 20 h; for effect at concentrations of growth inhibition (MIC90), E. coli: MBC compared to MIC90
Procedure: as §1, §2

Candida albicans Y01-19 = assay: MBC assay (Minimal Bactericide Concentration); format: cell-based; conditions: for effect at concentrations of growth inhibition (MIC90), C. albicans: MBC compared to MIC90; for MBC Candida albicans: Y01-19, n = 3, no colonies on agar plate after 20 h
Procedure: as §1, §2

[5] = listed as diisopropyl thiosulfonate Batch A
[6] = listed as diisopropyl thiosulfonate Batch C

## CCCSSCCC [Di-n-propyl disulfide, reference compound]
[1]
  S. epidermidis MBIC90: 4 mM

## Clc1ccc(SSc2ccc(Cl)cc2)cc1 [Bis (4-chlorophenyl) disulfide, Bis(4-chlorophenyl) disulfide]
[1]
  S. epidermidis MBIC90: >4 mM

## CC(C)SS(=O)(=O)C(C)C [Di-isopropyl thiosulfonate]
[2]; daily exposure up to 4 days, FIG. 24, listed as AM-8
  bacterial counts in mature biofilms, multiple daily exposures: dose-dependently significantly reduced the bacterial counts in mature biofilms; also recorded: able to eliminate all bacteria within biofilms
[2]; dose range study, results not shown
  biofilm reducing effect of a single dose: increased in time without fully eradicating the bacteria within the biofilm
[3]; [5]
  MBC Staphylococcus aureus: 1500 µM
[3]; [6]
  MBC Staphylococcus aureus: 1833 µM
[3]
  effect at concentrations of growth inhibition (MIC90), S. aureus: bacteriostatic effect
[4]
  MBC Escherichia coli: 219 µM
  effect at concentrations of growth inhibition (MIC90), E. coli: bactericidal effect
Candida albicans Y01-19
  effect at concentrations of growth inhibition (MIC90), C. albicans: bactericidal effect
Candida albicans Y01-19; [5]
  MBC Candida albicans: 75 µM
Candida albicans Y01-19; [6]
  MBC Candida albicans: 50 µM

## CCCSS(=O)(=O)CCC [Di-n-propyl thiosulfonate, reference compound]
[1]
  S. epidermidis MBIC90: 2 mM
[3]
  MBC Staphylococcus aureus: 1083 µM
  effect at concentrations of growth inhibition (MIC90), S. aureus: bacteriostatic effect
[4]
  MBC Escherichia coli: 208 µM
  effect at concentrations of growth inhibition (MIC90), E. coli: bactericidal effect
Candida albicans Y01-19
  effect at concentrations of growth inhibition (MIC90), C. albicans: bactericidal effect
  MBC Candida albicans: 25 µM
